Laboratory results taken from patent US8187635B2, “Pharmaceutical composition containing a pyrrolidone anticonvulsant agent and method for the preparation thereof” (Pharmathen S.A, priority 2007, dated 2012).
Where two headings read alike, the source gives them in different places.

Columns and labels:
[1] = Compatibility of Levetiracetam with excipients (impurity profile); type: physicochemical
Description: Levetiracetam was tested for its compatibility with several pharmaceutically acceptable excipients comprising the above mentioned properties.

[2] = cited from earlier work
[3] = cited from earlier work; remark: listed apart in the source

- impurity profile of the active ingredient with excipient ([1]; with PVP): not acceptable
- impurity profile of the active ingredient with excipient ([1]; with sodium starch glycolate (Primojel)): not acceptable
Structure (SMILES): CC[C@@H](C(N)=O)N1CCCC1=O [Levetiracetam, S-enantiomer of α-ethyl-2-oxo-1-pyrrolidine acetamide]
- solubility ([2]; in acetonitrile): sparingly soluble
- solubility ([2]; in chloroform): freely soluble
- solubility ([2]; in methanol): freely soluble
- solubility ([2]; in n-hexane): practically insoluble
- solubility ([2]; in water): very soluble
- bioavailability [3]: 100%
- protein binding [3]: lack of protein binding
